Where a name gives a salt, the structure may show the parent alone.
Assays:
[1] = tested on: A-431; test: Antiproliferation assay (Assay 7), A-431; type: cell-based; conditions: CellTiter-Glo, 72 hours, median, read-out: Antiproli A-431 [M] median IC50
Experimental: (§1) Assessment of the Anti-Proliferative Effect of Compounds in Different Cell Lines
(§2) The impact of compounds on the proliferation of different cell lines was assessed using the CellTiter-Glo® Luminescent Cell Viability reagent from Promega (G7573).
(§3) In parallel, cells were plated in a reference (day 0) plate for time zero determination.
(§4) Rim wells were excluded. The cells were incubated for 72 hours in a humidified incubator at 37° C. The day 0 plate was measured by adding 30 μL/well of CTG solution (CellTiter-Glo® Luminescent Cell Viability reagent, Promega G7573) to time zero wells in the reference plate followed by a 10 minutes incubation and luminescence reading at 0.1 ms. using the PHERAstar FS microplate reader (BMG Labtech).
(§5) After 72 hours incubation, the treated plates were measured in the same way as the day 0 plate mentioned above.

[2] = tested on: SUDHL5; test: Induction of cytotoxicity (Assay 6), SUDHL5; conditions: read-out: Cytotox SUDHL5 [M] (median) IC50, CellTiter-Glo, 5 hours, SUDHL5
[3] = molecular target: MCL-1 (Homo sapiens (Human), UniProt Q07820, K194A/K197A/R201A); test: Protein-protein interaction assay MCL-1/Noxa BH3 peptide (MCL-1 assay, TR-FRET); type: binding; conditions: MBP-MCL-1 / Noxa BH3 peptide, median
Outline: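 MBP-fused MCL-1 (aa 173-329, 1 nM) was pre-incubated with compound for 10 min at 22° C, then biotinylated Noxa BH3 peptide (1 nM) was added with anti-MBP-Eu cryptate and streptavidin-XL665. Incubation was 1 h at 22° C, then overnight at 4° C, in Tris pH 7 buffer. The 665/620 nm ratio over 11 concentrations (0.1 nM-20 μM) gave IC50 by 4-parameter fit.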

[4] = tested on: SUDHL5; test: Antiproliferation assay (Assay 7), SUDHL5; type: cell-based; conditions: CellTiter-Glo, 72 hours, median, read-out: Antiproli SUDHL5 [M] (median) IC50
Outline: (§6)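 Anti-proliferative effect is determined from CellTiter-Glo signal after a 72-hour incubation at 37° C, with a time-zero reference plate measured in parallel.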

[5] = tested on: HMC-1-8; test: Antiproliferation assay (Assay 7), HMC-1-8; type: cell-based; conditions: CellTiter-Glo, 72 hours, several values per example, read-out: Antiproli HMC-1-8 [M] IC50
Outline: as §6

[6] = tested on: SK-MEL-2; test: Antiproliferation assay (Assay 7), SK-MEL-2; type: cell-based; conditions: CellTiter-Glo, 72 hours, median, read-out: Antiproli SK-MEL-2 [M] median IC50
Experimental: as §1, §2, §3, §4, §5

[7] = tested on: SNU-16; test: Antiproliferation assay (Assay 7), SNU-16; type: cell-based; conditions: CellTiter-Glo, 72 hours, median, read-out: Antiproli SNU-16 [M] median IC50
Experimental: as §1, §2, §3, §4, §5

[8] = tested on: SUDHL10; test: Induction of cytotoxicity (Assay 6), SUDHL10; conditions: read-out: Cytotox SUDHL10 [M] (median) IC50, CellTiter-Glo, 5 hours, SUDHL10
Experimental: Assay 6 Induction of Cytotoxicity Upon Treatment of Cells with Selected Compounds
Therefore, cytotoxicity assays were run in parallel in SUDHL5 and SUDHL10 cells.
The different cell lines were plated in culture medium (RPMI 1640 [GIBCO #22400-089] supplemented with 10% Fetal Bovine Serum) at a density of 3,300 cells in 30 μl/well in a sterile, solid black, flat bottom, polystyrene, TC-treated 384-well microplate (Corning #3571) using Multidrop Combi Reagent Dispenser. As a control, medium without cells was also added to the plate. Cells were incubated in a humidified incubator at 37° C. overnight. On the next day, the cells were treated with compounds (stock solution, 10 mM in DMSO) using the HP D300 Digital Dispenser in a concentration range of 3.3×10e-5 M (33 μM) to 5×10e-9 M (5 nM) in a single-dot curve with at least 16 dilutions and a DMSO concentration of 0.33%. Rim wells were excluded. The cells were incubated for 5 hours in a humidified incubator at 37° C. After this incubation, 30 μl of CellTiter-Glo® Luminescent Cell Viability reagent (Promega, G7573) was added to each well using the Multidrop Combi Reagent Dispenser, followed by 15 minutes incubation on a shaker at room temperature. Finally, luminescence was read at 0.1 ms, with a gain of 3000 using the PHERAstar FS microplate reader (BMG Labtech).

[9] = molecular target: SUDHL5; test: Induction of caspase-3/7 activity (Assay 4), SUDHL5; type: cell-based; conditions: caspase-3/7 induction, 3 hours, median
Outline: (§7)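 Caspase-3/7 activity measured by Caspase-Glo 3/7 luminescence in DLBCL cells after 3 h compound treatment at 37 °C. Medium-only background subtracted. EC50 fitted with C0 fixed at 1 and top set to the reference compound's plateau/max induction.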

[10] = molecular target: SUDHL10; test: Induction of caspase-3/7 activity (Assay 4), SUDHL10; type: cell-based; conditions: caspase-3/7 induction, 3 hours, median
Outline: as §7

[11] = tested on: PA-1; test: Antiproliferation assay (Assay 7), PA-1; type: cell-based; conditions: CellTiter-Glo, 72 hours, median, read-out: Antiproli PA-1 [M] median IC50
Experimental: as §1, §2, §3, §4, §5

[12] = tested on: DM-S114; test: Antiproliferation assay (Assay 7), DM-S114; type: cell-based; conditions: CellTiter-Glo, 72 hours, median, read-out: Antiproli DM-S114 [M] median IC50
Experimental: as §1, §2, §3, §4, §5

Sequence of MCL-1 (Q07820 whole entry K194A/K197A/R201A, looked up, the tested form may be a part): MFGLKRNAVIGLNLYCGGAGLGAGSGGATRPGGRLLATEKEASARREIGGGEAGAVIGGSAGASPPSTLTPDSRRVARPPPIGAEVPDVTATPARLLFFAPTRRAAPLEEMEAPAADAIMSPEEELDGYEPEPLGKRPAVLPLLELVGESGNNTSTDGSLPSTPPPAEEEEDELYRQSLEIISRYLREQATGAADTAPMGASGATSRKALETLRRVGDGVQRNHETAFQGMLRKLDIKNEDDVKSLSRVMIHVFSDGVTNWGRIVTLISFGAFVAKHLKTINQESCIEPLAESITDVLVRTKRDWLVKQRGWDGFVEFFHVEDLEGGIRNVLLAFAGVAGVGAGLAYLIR

SMILES: CCc1c2c(nn1C)C(CCN1CCOCC1)N(C)S(=O)(=O)CCCn1c(C(=O)O)c(CCCOc3cccc4cc(F)ccc34)c3ccc(Cl)c-2c31 (single isomer, unassigned; enantiomer 1) [Example 75, 4-chloro-3-ethyl-7-{3-[(6-fluoronaphthalen-1-yl)oxy]propyl}-2,14-dimethyl-15-[2-(morpholin-4-yl)ethyl]-13,13-dioxo-10,11,12,13,14,15-hexahydro-2H-13lambda^6-pyrazolo[3′,4′:4,5][1,2,8]thiadiazacycloundecino[6,7,8-hi]indole-8-carboxylic acid-N-ethylethanamine Salt (Enantiomer 1)]
- IC50 [1]: 3.24e-07 M
- IC50 [2]: 1.6e-05 M
- IC50 [3]: 150 nM
- IC50 [4]: 1.4e-05 M
- IC50 [5]: > 3.3e-05 M
- IC50 [6]: 4.64e-07 M
- IC50 [7]: 1.26e-07 M
- IC50 [8]: 1.6e-05 M
- EC50 [9]: 11000 nM
- EC50 [10]: 35000 nM
- IC50 [11]: 3.2e-08 M
- IC50 [12]: 3.66e-08 M

— patent US11401278B2, “Macrocyclic indole derivatives” (The Broad Institute, Inc., priority 2017, dated 2022)
